One test relates to HIV-1 fusion. In words: cells. The class given is cell-based. As to conditions: HIV cell fusion assay; HeLa P4 (CCR5/CD4) and CHO-Tat10 (gp160 JRFL) cells; read-out: IC50. As to the method:
The gp160 induced cell-cell fusion assay uses a HeLa P4 cell line and a CHO-Tat10 cell line.
The HeLa P4 cell line expresses CCR5 and CD4 and has been transfected with HIV-1 LTR-β-Galactosidase. The media for this cell line is Dulbecco modified eagle's medium (D-MEM) (without L-glutamine) containing 10% foetal calf serum (FCS), 2 mM L-glutamine, penicillin/streptomycin (Pen/Strep; 100 U/mL penicillin+[…] streptomycin), and 1 μg/ml puromycin.
The CHO cell line is a Tat (transcriptional trans activator)-expressing clone from a CHO JRR17.1 cell line that has been transfected with pTat puro plasmid. The media for this cell line is rich medium for mammalian cell culture originally developed at Roswell Park Memorial Institute RPMI1640 (without L-glutamine) containing 10% FCS, 2 mM L-glutamine, 0.5 mg/ml Hygromycin B and 12 μg/ml puromycin. The CHO JRR17.1 line expresses gp160 (JRFL) and is a clone that has been selected for its ability to fuse with a CCR5/CD4 expressing cell line.
Upon cell fusion, Tat present in the CHO cell is able to transactivate the HIV-1 long terminal repeat (LTR) present in the HeLa cell leading to the expression of the β-Galactosidase enzyme. This expression is then measured using a Fluor Ace™ β-Galactosidase reporter assay kit (Bio-Rad cat no. 170-3150). This kit is a quantitative fluorescent assay that determines the level of expression of β-galactosidase using 4-methylumbelliferyl-galactopyranoside (MUG) as substrate. β-Galactosidase hydrolyses the fluorogenic substrate resulting in release of the fluorescent molecule 4-methylumbelliferone (4 MU). Fluorescence of 4-methylumbelliferone is then measured on a fluorometer using an excitation wavelength of 360 nm and emission wavelength of 460 nm.
In general, IC50 refers to the concentration that gives 50% inhibition. On to `Cc1ccnc(C)c1C(=O)N1CCC(C)(N2CC[C@@H](N(Cc3ccccc3)C(=O)C3CC3)C2)CC1` [Example 62], for which the IC50 worked out at 0.34 nM.

As for `Cc1ncnc(C)c1C(=O)N1CCC(C)(N2CC[C@@H](N(Cc3ccccc3)C(=O)C3CC3)C2)CC1` [Example 63], the IC50 was found to be 8.18 nM.

Consider `COCC(=O)N(Cc1ccccc1F)[C@@H]1CCN(C2(C)CCN(C(=O)c3c(C)ncnc3C)CC2)C1` [Example 64], for which the IC50 is 16.6 nM.

As for `Cc1cc[n+]([O-])c(C)c1C(=O)N1CCC(C)(N2CC[C@@H](N(Cc3ccccc3)C(=O)C3CC3)C2)CC1` [Example 65], the IC50 was 26.5 nM.

Consider `COCC(=O)N(Cc1ccccc1F)[C@@H]1CCN(C2(C)CCN(C(=O)c3ccc(F)cc3Cl)CC2)C1` [Example 66], for which the IC50 was 28.5 nM.

Take `Cc1ncnc(C)c1C(=O)N1CCC(C)(N2CC[C@@H](N(Cc3ccccc3)C(=O)C3CC(F)(F)C3)C2)CC1` [Example 67]: the IC50 amounted to 44.3 nM.

In the case of `CCc1noc(C)c1C(=O)N1CCC(C)(N2CC[C@@H](N(Cc3ccccc3)C(=O)C3CC3)C2)CC1` [Example 68], the IC50 is 61.6 nM.

For `Cc1cccc(C)c1C(=O)N1CCC(C)(N2CC[C@@H](N(C=O)Cc3ccccc3F)C2)CC1` [Example 69], the IC50 worked out at 123 nM.

As for `Cc1ncnc(C)c1C(=O)N1C2CCC1CC(N1CCC(N(Cc3ccccc3)C(=O)C3CC3)C1)C2` (centres unmarked) [Example 71], the IC50 worked out at 4.27 nM.

Regarding `Cc1ccccc1C(=O)N1C2CCC1CC(N1CCC(N(Cc3ccccc3)C(=O)C3CC3)C1)C2` (centres unmarked) [Example 72], the IC50 was 97.3 nM.

The same test, now with this note: Human immunodeficiency virus 1, HeLaP4.
In turn, `Cc1ccnc(C)c1C(=O)N1[C@@H]2CC[C@H]1C[C@H](N1CC[C@@H](N(Cc3ccccc3)C(=O)C3CC3)C1)C2` [Example 70, N-benzyl-N-((3R)-1-[(3-exo)-8-[(2,4-dimethylpyridin-3-yl)carbonyl]-8-azabicyclo[3.2.1]oct-3-yl]pyrrolidin-3-yl)cyclopropanecarboxamide] registered an IC50 of 2.65 nM.

The values above are taken from patent publication US20090124636A1, “CHEMICAL COMPOUNDS” (priority 2006, published 2009).
